Experiment: gradient 5% acetonitrile 3 min, to 50% in 2 min, to 85% in 15 min, held 3 min, 100 µL/min
Conditions: column: Zorbax Extend-C18 2.1 x 50 mm; eluents: water / acetonitrile, 0.1% formic acid
How it was run: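 Standards, all pure, were combined into mixtures of ~100 molecules and run at 100 μL/min on a Zorbax Extend-C18 column (2.1 × 50 mm, 1.8 μm) with water and acetonitrile, each containing 0.1% formic acid. A coupled quadrupole time-of-flight mass spectrometer operated in positive and negative ionization mode. Retention time values come from computationally picked adduct peaks, each inspected manually.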

Row | RP-LC retention time [s] | SMILES
1 | 755 | Cc1cc(C)cc(C(=O)NCc2ccc3c(c2)nnn3C)c1
2 | 802 | O=C(CSc1nnc2c(=O)n(-c3ccc(F)cc3)ccn12)c1ccc(F)cc1
3 | 989 | CCSc1nnc(-c2nn(C)c3c2CN(S(=O)(=O)c2cccc(Cl)c2)CC3)n1CC
4 | 576 | Cc1noc(C)c1CCC(=O)N1CCN(c2ncnc3c2CCC3)CC1
5 | 746 | O=C(c1cc2c(s1)CCCC2)N1CCN(c2nnc3ccccn23)CC1
6 | 574 | CS(=O)(=O)N1C[C@H]2CCN(Cc3cn[nH]c3-c3ccccc3)C[C@H]21
7 | 619 | COc1cccc(C(=O)N2C[C@@H]3C[C@H](NC(=O)c4cccnc4)[C@H]2C3)c1OC
8 | 949 | Cc1cc(C)cc(Nc2nc(C)cc3nn(CC(=O)NC(C)C)c(=O)n23)c1
9 | 634 | O=C1c2ccccc2C(=O)c2c(NCCNCCO)ccc(O)c21
10 | 644 | CCC(=O)N(C)CCc1noc(-c2ccc(C(=O)NCCOC)cc2)n1
11 | 1220 | Cc1ccc(C)c(-c2cc3c(=O)n(Cc4nc(-c5ccccc5Cl)no4)ncn3n2)c1
12 | 1030 | COc1ccc(-c2nc(N(Cc3ccco3)C3CCCCC3)c3ccccc3n2)cc1
13 | 727 | Cc1ccc(NC(=O)C2CCN(S(=O)(=O)c3c(C)[nH]c(C)c3C(=O)N3CCCC3)CC2)cc1C
14 | 942 | Cc1ccc(Nc2c(-c3ccc(Cl)cc3)nc3ncccn23)cc1C
15 | 618 | CCOc1ccccc1NC(=O)N1CCCC(Cn2c(C)nc3cccnc32)C1 (stereo not drawn)
16 | 570 | CC(C)N1CCN(C(=O)CC2Sc3ncccc3N(C)C2=O)CC1 (stereo not drawn)
17 | 570 | O=C(NCCn1nc(-c2ccncc2)ccc1=O)c1ccc(C(F)(F)F)cc1
18 | 723 | CN1CCn2cc(S(=O)(=O)Nc3ccc(Cl)cc3F)cc2C1=O
19 | 761 | CCN1CCCn2nc(C3CCN(S(=O)(=O)c4ccc(F)cc4)CC3)cc2C1=O
20 | 545 | Cn1c(C(O)c2ccccc2)nc2ccccc21 (stereo not drawn)
21 | 829 | CSc1nc(N2CCCC2)c2cnn(CCNC(=O)CSc3ccc(F)cc3)c2n1
22 | 1020 | CCn1cc(-c2nc(C)c(C(=O)Nc3ccc(C(=O)OC)cc3)s2)c2cccnc21

Row | RP-LC retention time [s] | SMILES
23 | 767 | CC[C@H](C)NC(=O)Cc1nnc(-c2cccc(C)c2)o1
24 | 871 | COc1ccc(Cl)cc1NC(=O)N1CCC(n2cnc3ccc(F)cc3c2=O)CC1
25 | 970 | Cc1ccccc1N1C(=O)CN(S(=O)(=O)c2ccccc2)CC1(C)C(=O)NCCC(C)C (stereo not drawn)
26 | 726 | Cc1noc(C)c1Cc1c(C(=O)NCC23CCCC=C2NC(=O)CC3)noc1C (stereo not drawn)
27 | 960 | CC1CCN(C(=O)CSCc2nc3cccnc3n2C2CCCCC2)CC1
28 | 955 | CCC(C)N(CC(=O)N1CCc2sccc2C1COc1ccc(Cl)cc1)C(=O)COC (stereo not drawn)
29 | 740 | COc1ccc(Nc2c(-c3ccc(N(C)C)cc3)nc3cnccn23)cc1
30 | 888 | Cc1nnc(-c2cn(CC(=O)Nc3ccc(Br)cc3)c3ccccc23)o1
31 | 873 | CCOc1cccc(CNc2c(C(=O)OC)c(=O)[nH]c3c(Cl)cccc23)c1
32 | 671 | COc1cccc(S(=O)(=O)N2CCN(c3cnn4c(C)nnc4c3)CC2)c1
33 | 570 | Cc1cc(N2CCCCC2)nc(NCCNS(=O)(=O)N(C)C)n1
34 | 1200 | Cc1ccc(-n2ncc3c(=O)n(Cc4nc(-c5ccc(OC(F)(F)F)cc5)no4)cnc32)cc1
35 | 637 | Cc1cc(N(C)C)n2nc(CN3CCC(Cc4ccccc4)CC3)nc2n1
36 | 691 | O=S(=O)(c1ccccc1)c1cnc2c(N3CCNCC3)cccc2c1
37 | 753 | CC1=C(c2ccccc2)S(=O)(=O)N=C1N1CCC(NC(=O)C2CCC2)CC1
38 | 1130 | CCn1ccc(-c2nc(-c3ccc4oc(-c5ccccc5)nc4c3)no2)n1
39 | 756 | Cc1cc(=O)n(CC(=O)NCc2ccc(F)cc2F)c(N2CCOCC2)n1
40 | 579 | CN(C)c1ccc(CNC(=O)C2CCN(c3cc(N4CCSCC4)ncn3)CC2)cc1
41 | 834 | CN1C(=O)c2cccnc2Sc2cc(NC(=O)Cc3ccc(F)cc3)ccc21
42 | 655 | Cc1ccn2cc(C(=O)NCc3ccc(F)cc3F)nc2c1
43 | 665 | Cc1nc(-c2cc3cccc(C)c3nc2N2CCN(C)CC2)no1
44 | 1030 | Cc1cc(C)c(NC(=O)Cn2cccc(-c3nc(-c4ccc(Br)cc4)no3)c2=O)c(C)c1

Row | RP-LC retention time [s] | SMILES
45 | 915 | CC(C)Cn1c(=O)c(C(=O)NCc2ccccc2)nc2cccnc21
46 | 702 | CCOC(=O)c1c(C)oc2nc(C)nc(NCC3CCN(Cc4ccccc4F)CC3)c12
47 | 803 | CC(C)CC(NC(=O)CC1CCCCC1)C(=O)Nc1nc2ccccc2[nH]1 (stereo not drawn)
48 | 1110 | Cc1ccc(C)c(-c2coc(-c3ccc(NC(=O)NCc4ccco4)cc3)n2)c1
49 | 594 | Cn1nc(C(=O)N2CCCC(C(=O)NC3CC3)C2)c2c1CCN(C(=O)c1ccco1)C2 (stereo not drawn)
50 | 884 | CCCN1C(=O)COc2ccc(-c3noc(CNS(=O)(=O)c4ccc(F)cc4)n3)cc21
51 | 1040 | COc1ccc(C2(C(=O)N3CCC(c4noc(-c5cccc(OC)c5)n4)CC3)CC2)cc1
52 | 683 | COC(=O)CSc1nnc(CNC(=O)c2ccccc2F)n1Cc1ccccc1
53 | 812 | COc1cccc(-c2noc(Cn3ccn(-c4ccccc4)c(=O)c3=O)n2)c1
54 | 872 | O=C(NCc1ccco1)C1CCCN(c2ncccc2-c2noc(C3CCC3)n2)C1 (stereo not drawn)
55 | 972 | CC(C)OCCCNC(=O)C(C)n1c(=O)c(C(F)(F)F)nc2ccccc21 (stereo not drawn)
56 | 1170 | Cn1cc2c3c(cccc31)CN(C(=O)Nc1cc(Cl)ccc1Cl)CC2
57 | 559 | CCOC(=O)N1CCC(NC(=O)C2CCCN(Cc3nc(-c4cccnc4)no3)C2)CC1 (stereo not drawn)
58 | 1030 | Cc1ccc(NC(=O)CN2CCc3ccccc3C2C(=O)N2CCCCC2)cc1Cl (stereo not drawn)
59 | 801 | COc1ccc(C(=O)Nc2nc(-c3ccc4c(c3)NC(=O)CO4)cs2)cc1OC
60 | 894 | COc1ccc(C(=O)Nc2ccc3c(c2)Sc2ncccc2C(=O)N3C(C)C)cc1F
61 | 593 | CCN(Cc1nc2ccccc2n1C)c1ccccc1
62 | 1090 | Cc1ccc(-c2nc(C3CC(=O)N(c4ccc(F)c(Cl)c4)C3)no2)cc1C (stereo not drawn)
63 | 786 | Cc1noc(C)c1-c1ccc(S(=O)(=O)NC2CC2)cc1
64 | 794 | CCc1nnc(-c2ccc3ccn(CC(=O)Nc4ccc5c(c4)OCO5)c3c2)o1
65 | 654 | Cn1c(=O)n(C)c2cc(N3CCCCC3)c(NC(=O)NC3CCCC3)cc21
66 | 880 | Cc1noc(-c2ccc(OC3CN(C(=O)NCCc4ccccc4)C3)cc2)n1

Row | RP-LC retention time [s] | SMILES
67 | 643 | CCOC(=O)N1CCN(C(=O)Cn2c(-c3ccccn3)nc3ccccc32)CC1
68 | 567 | Cc1ccsc1CN1CCC(c2nc(-c3cnccn3)n[nH]2)CC1
69 | 679 | COc1ccc(CN2CCN(C(=O)C3=Cc4ccccc4OC3)CC2)c(OC)c1OC
70 | 695 | O=C(Oc1coc(CSc2ncccn2)cc1=O)c1cccs1
71 | 760 | COCCOc1ccc2c(n1)CCN(C(=O)NC1CCCCC1)C2
72 | 702 | COCCCNC(=O)Cn1cccc(-c2nc(-c3ccc(F)cc3)no2)c1=O
73 | 987 | CC(C)Cn1cc(CCNS(=O)(=O)c2ccc(Cl)s2)c2cccnc21
74 | 861 | Cc1cccc(CN2CCCn3nc(C(=O)NCc4ccc5c(c4)OCO5)cc3C2=O)c1
75 | 1210 | Cc1ccc(CS(=O)(=O)N2CCc3nc(-c4ccc(Cl)cc4)ncc3C2)cc1
76 | 972 | O=C(NC1CC1)C1CCCN(S(=O)(=O)c2cc(-c3noc(C4CCCC4)n3)cs2)C1 (stereo not drawn)
77 | 925 | COc1ccc(-c2ccc(=O)n(Cc3nc(-c4ccc(C)cc4)no3)n2)cc1OC
78 | 844 | COc1cc(OC)c(NC(=O)C(C)Oc2ccc(=O)n(-c3ccc(F)cc3)n2)cc1Cl (stereo not drawn)
79 | 893 | Cc1nnc(C2CCCCCN2S(=O)(=O)c2ccc(F)c(C)c2)o1 (stereo not drawn)
80 | 563 | O=C1CC(NC(=O)c2cc(C3CC3)on2)CN1 (stereo not drawn)
81 | 824 | CCCC(=O)Nc1cc2c(cc1S(=O)(=O)c1ccc(C)cc1)n(C)c(=O)n2C
82 | 812 | Cc1cc(C(=O)N2CCCCC2)c2c(=O)n(CC(=O)N(C)c3ccccc3)c(=O)n(C)c2n1
83 | 846 | Cc1cc(NC(=O)CSc2c(-c3ccccc3)[nH]c3ccccc23)no1
84 | 726 | CC(NC(=O)c1cc(-c2ccc(Cl)cc2)cn1C)c1cccnc1 (stereo not drawn)
85 | 628 | CC(NC(=O)C1CCCN(C(=O)c2cc3sccc3n2C)C1)c1ccccc1 (stereo not drawn)
86 | 560 | CCOc1ccc(C(O)CN2CCN(c3ccccn3)CC2)cc1 (stereo not drawn)

Row | SMILES | RP-LC retention time [s]
87 | CC1OC(O[C@H]2C[C@@H](O)[C@]3(CO)[C@H]4[C@H](O)C[C@]5(C)[C@@H](C6=CC(=O)OC6)CC[C@]5(O)[C@@H]4CC[C@]3(O)C2)C(O)C(O)C1O (stereo partly drawn) | 594
88 | COc1ccc2c(c1)C1(CCN(C(=O)c3cccc(F)c3)C1)C(=O)N2C (stereo not drawn) | 782

Reference: the METLIN SMRT retention time set (Domingo-Almenara et al. 2019)
